Laboratory results reported in patent US7902253B2, “Isoflavone derivatives of tectorigenin, the preparation thereof and the antiviral medicine containing the same as an effective constituent” (priority 2003, dated 2011).
Converted amounts (≈) assume the structure as drawn. “And” between values parts separate entries of the source, which are not always exact repeats. Equal values may be shown once. Read-outs that look alike come from different tables or passages of the source.

Experiments:
[1] = solubility test in water (Chinese Pharmacopeia method); settings: 25° C.±2° C., shaken every five minutes for 30 minutes
[2] = test system: Coxsackie virus group B (CoxBV); format: cell-based
adenovirus type 3 (ADV3) = format: cell-based
[3] = solubility in water stated in description and preparation examples; format: physicochemical
adenovirus type 7 (ADV7) = format: cell-based
Vero-E6 cell = assay: toxicity to Vero-E6 cell (CPE, REED-MUENCH); settings: five days, CPE index
[4] = test system: influenza virus type A3 (Flu•V A3); format: cell-based
coronavirus BJ01 strain = assay: organism not typed; format: cell-based, coronavirus (SARS); settings: for IC50: Vero C1008, 120 h
VZV = format: cell-based
HSV-1 = format: cell-based
[5] = test system: respiratory syncytial virus (RSV); format: cell-based
[6] = test system: influenza virus type A1 (Flu•V A1); format: cell-based
Hep-2 cells = assay: cell toxicity test; settings: Hep-2, all concentrations tested
Z-HL16C cells = assay: cell toxicity test; settings: all concentrations tested
[7] = clarity of injection after adding glucose; format: physicochemical
[8] = product of the preparation example (salt as made), read-out: solubility in water

For COc1c(O)cc2occ(-c3ccc(OCCN(C)C)cc3)c(=O)c2c1O [Compound (VIII)], the “Solute: water” value [1] was 10 mg/mL, the “cell pathologic change degree” value [2] was 1+ and 2+ and 3+ and the “cell pathologic change degree” value (adenovirus type 3 (ADV3)) was 1+ and 2+ and 3+. For the same molecule, the solubility [3, 8] was > 2000 µg/mL, the “cell pathologic change degree” value (adenovirus type 7 (ADV7)) was 2+ and 3+ and the “TD50 (median toxic concentration)” value (Vero-E6 cell) was 3.45 mg/mL. The “cell pathologic change degree” value [4] was 1+ and 2+ and 3+, the IC50 (coronavirus BJ01 strain) was 112 µg/mL (≈ 302 µM) and the “cell pathologic change degree” value (VZV) was 2+. For the same molecule, the “cell pathologic change degree” value (HSV-1) was 1+ and 2+, the “cell pathologic change degree” value [5] was 2+ and 3+ and the “cell pathologic change degree” value [6] was 2+.
With COc1c(O)cc2occ(-c3ccc(OCC(=O)[O-])cc3)c(=O)c2c1O.[Na+] [Compound (VII)] the “Solute: water” value [1] was 15 mg/mL, the “cell pathologic change degree” value [2] was 1+ and 2+ and 3+ and the “cell pathologic change degree” value (adenovirus type 3 (ADV3)) was 1+ and 2+. The solubility [3, 8] was > 2000 µg/mL, the “cell pathologic change degree” value (adenovirus type 7 (ADV7)) was 2+ and 3+ and the “TD50 (median toxic concentration)” value (Vero-E6 cell) was 4.20 mg/mL. For the same molecule, the “cell pathologic change degree” value [4] was 1+ and 2+ and 3+, the IC50 (coronavirus BJ01 strain) was 102 µg/mL and the “cell pathologic change degree” value (VZV) was 1+ and 2+. For the same molecule, the “cell pathologic change degree” value (HSV-1) was 1+, the “cell pathologic change degree” value [5] was 2+ and 3+ and the “cell pathologic change degree” value [6] was 2+.
In the case of C=C1CC[C@@H]2[C@](C)(COC(=O)CCC(=O)[O-])[C@H](OC(=O)CCC(=O)[O-])CC[C@@]2(C)[C@@H]1/C=C/C1=CCOC1=O.[K+].[Na+] [Chuanhuning, Potassium Sodium Dehydroandroandrographolide Succinate, reference compound], the “cell pathologic change degree” value [2] is reported as 2+ and 3+, the “effect on cytopathogenesis (in words)” value [2] is reported as “inhibiting effect” and the “cell pathologic change degree” value (adenovirus type 3 (ADV3)) is reported as 2+ and 3+. The “effect on cytopathogenesis (in words)” value (adenovirus type 3 (ADV3)) was “inhibiting effect”, the “cell pathologic change degree” value (adenovirus type 7 (ADV7)) was 2+ and 3+ and the “effect on cytopathogenesis (in words)” value (adenovirus type 7 (ADV7)) was “inhibiting effect”. For the same molecule, the “cell pathologic change degree” value [4] was 2+ and 3+, the “effect on cytopathogenesis (in words)” value [4] was “inhibiting effect” and the “cell pathologic change degree” value (VZV) was 1+ and 2+ and 3+. The “cell pathologic change degree” value (HSV-1) was 1+ and 2+ and 3+, the “cell pathologic change degree” value [5] was 2+ and 3+ and the “effect on cytopathogenesis (in words)” value [5] was “inhibiting effect”. The “toxic reaction to cells (in words)” value (Hep-2 cells) was “no any toxic reaction”, the “cell pathologic change degree” value [6] was 2+ and 3+ and the “effect on cytopathogenesis (in words)” value [6] was “inhibiting effect”. The “toxic reaction to cells (in words)” value (Z-HL16C cells) was “no any toxic reaction”.
For COc1c(O)c(CN(C)C)c2occ(-c3ccc(O)cc3)c(=O)c2c1O [Compound (X)], the “Solute: water” value [1] was 9 mg/mL, the “cell pathologic change degree” value [2] was 1+ and 3+ and the “cell pathologic change degree” value (adenovirus type 3 (ADV3)) was 1+ and 2+ and 3+. The solubility [3, 8] was > 2000 µg/mL, the “cell pathologic change degree” value (adenovirus type 7 (ADV7)) was 2+ and 3+ and the “TD50 (median toxic concentration)” value (Vero-E6 cell) was 3.95 mg/mL. For the same molecule, the “cell pathologic change degree” value [4] was 1+ and 2+ and 3+, the IC50 (coronavirus BJ01 strain) was 119 µg/mL (≈ 332 µM) and the “cell pathologic change degree” value (VZV) was 1+ and 2+. The “cell pathologic change degree” value (HSV-1) was 1+ and 2+ and 3+, the “cell pathologic change degree” value [5] was 2+ and 3+ and the “cell pathologic change degree” value [6] was 2+.
With NC(=O)c1ncn([C@@H]2O[C@H](CO)[C@@H](O)[C@H]2O)n1 [Ribavirin, reference compound] the “cell pathologic change degree” value [2] was 2+ and 3+, the “cell pathologic change degree” value (adenovirus type 3 (ADV3)) was 1+ and 2+ and 3+ and the “cell pathologic change degree” value (adenovirus type 7 (ADV7)) was 2+ and 3+. For the same molecule, the “cell pathologic change degree” value [4] was 1+ and 3+, the “Pathologic change pore/cell pore” value (coronavirus BJ01 strain) was 2/4 and 3/4 and 4/4 and 0/4 and 1/4 and the “cell pathologic change degree” value (HSV-1) was 1+ and 2+ and 3+. The “cell pathologic change degree” value [5] was 2+ and 3+ and the “cell pathologic change degree” value [6] was 1+ and 3+.
With COc1c(O)cc2occ(-c3ccc(O)c(S(=O)(=O)[O-])c3)c(=O)c2c1O.[Na+] [Compound (IV), tectorigenin sodium sulfonate] the “Solute: water” value [1] was 67 mg/mL, the solubility ([3]; 60 °C, after heating to 60˜100° C., read-out: water-solubility) was 50000 to 60000 µg/mL and the solubility ([3]; room temperature, read-out: water-solubility) was 20000 µg/mL. For the same molecule, the “clarity of the injection” value ([7]; 2-15% glucose added, room temperature and low temperature (0° C.-5° C.)) was “kept clarified”, the “clarity of the injection” value ([7]; 4% glucose added, room and low (0° C.˜5° C.) temperature) was “kept clear” and the “TD50 (median toxic concentration)” value (Vero-E6 cell) was 4.34 mg/mL. The IC50 (coronavirus BJ01 strain) was 97.6 µg/mL.
With COc1c(O)cc2occ(-c3ccc(O)c(N)c3)c(=O)c2c1O [Compound (VI)] the “Solute: water” value [1] was 8 mg/mL, the “cell pathologic change degree” value [2] was 2+ and the “cell pathologic change degree” value (adenovirus type 3 (ADV3)) was 1+ and 2+ and 3+. The solubility [3, 8] was > 1000 µg/mL, the “cell pathologic change degree” value (adenovirus type 7 (ADV7)) was 2+ and 3+ and the “TD50 (median toxic concentration)” value (Vero-E6 cell) was 3.85 mg/mL. The “cell pathologic change degree” value [4] was 1+ and 2+ and 3+, the IC50 (coronavirus BJ01 strain) was 120 µg/mL (≈ 381 µM) and the “cell pathologic change degree” value (VZV) was 2+ and 3+. The “cell pathologic change degree” value (HSV-1) was 1+ and 2+ and 3+, the “cell pathologic change degree” value [5] was 2+ and 3+ and the “cell pathologic change degree” value [6] was 2+.
In the case of COc1c(O)cc2occ(-c3ccc(O)cc3)c(=O)c2c1O [Compound (I), 5,7,4′-trihydroxy-6-methoxyl isoflavone, reference compound], the “Solute: water” value [1] is reported as 0.1 mg/mL.
With COc1c(O)c(CN2CCCCC2)c2occ(-c3ccc(O)cc3)c(=O)c2c1O [Compound (IX)] the “Solute: water” value [1] was 8 mg/mL, the “cell pathologic change degree” value [2] was 1+ and 2+ and 3+ and the “cell pathologic change degree” value (adenovirus type 3 (ADV3)) was 1+ and 3+. For the same molecule, the solubility [3, 8] was < 1000 µg/mL, the “cell pathologic change degree” value (adenovirus type 7 (ADV7)) was 2+ and 3+ and the “TD50 (median toxic concentration)” value (Vero-E6 cell) was 2.89 mg/mL. The “cell pathologic change degree” value [4] was 1+ and 2+ and 3+, the IC50 (coronavirus BJ01 strain) was 125 µg/mL (≈ 315 µM) and the “cell pathologic change degree” value (VZV) was 1+ and 2+ and 3+. For the same molecule, the “cell pathologic change degree” value (HSV-1) was 2+, the “cell pathologic change degree” value [5] was 2+ and the “cell pathologic change degree” value [6] was 2+.
